Reference: US20220169629A1, “PESTICIDALLY ACTIVE DIAZINE-AMIDE COMPOUNDS” (SYNGENTA CROP PROTECTION AG, priority 2019, published 2022)

Legend:
Type in all cases: in vivo
[1] = system: Plutella xylostella (diamondback moth); assay: Example B10: Plutella xylostella (diamondback moth), 96-well artificial diet; conditions: 216 h, application rate of 500 ppm, 9 days after infestation, eggs/L1 larvae
Procedure: Example B10: Plutella xylostella (Diamondback Moth)
96-well microtiter plates containing artificial diet were treated with aqueous test solutions, prepared from 10′000 ppm DMSO stock solutions, by a liquid handling robot. After drying, eggs (˜30 per well) were infested onto a netted lid which was suspended above the diet. The eggs hatch and L1 larvae move down to the diet. The samples were assessed for mortality 9 days after infestation.

[2] = system: Chilo suppressalis (striped rice stemborer); assay: Example B4: Chilo suppressalis (striped rice stemborer), artificial diet, L2 larvae; conditions: 144 h, application rate of 200 ppm, 6 days after infestation, L2 larvae on artificial diet, read-out: control in at least one of the three categories (mortality, anti-feeding or growth inhibition)
Procedure: Example B4: Chilo suppressalis (Striped rice stemborer)
24-well microtiter plates with artificial diet were treated with aqueous test solutions prepared from 10′000 ppm DMSO stock solutions by pipetting. After drying, the plates were infested with L2 larvae (6-8 per well). The samples were assessed for mortality, anti-feeding effect, and growth inhibition in comparison to untreated samples 6 days after infestation. Control of Chilo suppressalis by a test sample is given when at least one of the categories mortality, anti-feedant effect, and growth inhibition is higher than the untreated sample.

[3] = system: Plutella xylostella (diamond back moth); assay: Example B5: Plutella xylostella (diamond back moth), artificial diet, 24-well, eggs; conditions: 192 h, application rate of 200 ppm, 8 days after infestation, read-out: control in at least one of the two categories (mortality or growth inhibition)
Procedure: Example B5: Plutella xylostella (Diamond Back Moth)
24-well microtiter plates with artificial diet were treated with aqueous test solutions prepared from 10′000 ppm DMSO stock solutions by pipetting. After drying, Plutella eggs were pipetted through a plastic stencil onto a gel blotting paper and the plate was closed with it. The samples were assessed for mortality and growth inhibition in comparison to untreated samples 8 days after infestation.

[4] = system: Spodoptera littoralis (Egyptian cotton leaf worm); assay: Example B7: Spodoptera littoralis (Egyptian cotton leaf worm), sprayed cotton leaf discs, L1 larvae; conditions: foliar, 72 h, application rate of 200 ppm, 3 days after infestation, L1 larvae on cotton leaf discs, read-out: control in at least one of the three categories (mortality, anti-feeding or growth inhibition)
Procedure: Example B7: Spodoptera littoralis (Egyptian Cotton Leaf Worm)
Cotton leaf discs were placed onto agar in 24-well microtiter plates and sprayed with aqueous test solutions prepared from 10′000 ppm DMSO stock solutions. After drying the leaf discs were infested with five L1 larvae. The samples were assessed for mortality, anti-feeding effect, and growth inhibition in comparison to untreated samples 3 days after infestation. Control of Spodoptera littoralis by a test sample is given when at least one of the categories mortality, anti-feedant effect, and growth inhibition is higher than the untreated sample.

[5] = system: Diabrotica balteata (corn root worm); assay: Example B1: Diabrotica balteata (corn root worm), sprayed maize sprouts, L2 larvae; conditions: 96 h, application rate of 200 ppm, 4 days after infestation, L2 larvae on maize sprouts, read-out: control in at least one of the two categories (mortality or growth inhibition)
Procedure: Example B1: Diabrotica Balteata (Corn Root Worm)
Maize sprouts placed onto an agar layer in 24-well microtiter plates were treated with aqueous test solutions prepared from 10′000 ppm DMSO stock solutions by spraying. After drying, the plates were infested with L2 larvae (6 to 10 per well). The samples were assessed for mortality and growth inhibition in comparison to untreated samples 4 days after infestation.

CC(NC(=O)c1cc(OCC(F)(F)F)cc(C(F)(F)F)c1)c1nccnc1-c1ccc(OCC(F)(F)F)cn1 (stereo not drawn) [Compound P14, 3-(2,2,2-trifluoroethoxy)-N-[1-[3-[5-(2,2,2-trifluoroethoxy)-2-pyridyl]pyrazin-2-yl]ethyl]-5-(trifluoromethyl)benzamide]
≥ 80%: mortality at 500 ppm [1] | control at 200 ppm [2] | percent control (mortality or growth inhibition) at 200 ppm [3]

CC(NC(=O)c1cc(OCC(F)F)cc(C(F)(F)F)c1)c1nccnc1-c1ncc(OCC(F)F)cn1 (stereo not drawn) [Compound P32, 3-(2,2-difluoroethoxy)-N-[1-[3-[5-(2,2-difluoroethoxy)pyrimidin-2-yl]pyrazin-2-yl]ethyl]-5-(trifluoromethyl)benzamide]
≥ 80%: control at 200 ppm [2] | percent control (mortality, anti-feeding or growth inhibition) at 200 ppm [4] | percent control (mortality or growth inhibition) at 200 ppm [3]

CC(NC(=O)c1cc(OCC(F)(F)F)cc(C(F)(F)F)c1)c1nccnc1-c1ncc(OC(F)F)cn1 (stereo not drawn) [Compound P30, N-[1-[3-[5-(difluoromethoxy)pyrimidin-2-yl]pyrazin-2-yl]ethyl]-3-(2,2,2-trifluoroethoxy)-5-(trifluoromethyl)benzamide]
≥ 80%: mortality at 500 ppm [1] | control at 200 ppm [2] | percent control (mortality, anti-feeding or growth inhibition) at 200 ppm [4] | percent control (mortality or growth inhibition) at 200 ppm [5] | percent control (mortality or growth inhibition) at 200 ppm [3]

CC(NC(=O)c1cc(OCC(F)F)cc(C(F)(F)F)c1)c1nccnc1-c1ccc(OCC(F)(F)F)cn1 (stereo not drawn) [Compound P17, 3-(2,2-difluoroethoxy)-N-[1-[3-[5-(2,2,2-trifluoroethoxy)-2-pyridyl]pyrazin-2-yl]ethyl]-5-(trifluoromethyl)benzamide]
≥ 80%: mortality at 500 ppm [1] | percent control (mortality, anti-feeding or growth inhibition) at 200 ppm [4] | percent control (mortality or growth inhibition) at 200 ppm [3]

CC(NC(=O)c1cc(Cl)cc(C(F)(F)F)c1)c1nccnc1-c1ccc(C#N)cn1 (stereo not drawn) [Compound P7, 3-chloro-N-[1-[3-(5-cyano-2-pyridyl)pyrazin-2-yl]ethyl]-5-(trifluoromethyl)benzamide]
≥ 80%: control at 200 ppm [2] | percent control (mortality, anti-feeding or growth inhibition) at 200 ppm [4] | percent control (mortality or growth inhibition) at 200 ppm [5] | percent control (mortality or growth inhibition) at 200 ppm [3]

CC(NC(=O)c1cc(Br)cc(C(F)(F)F)c1)c1nccnc1-c1ccc(OCC(F)(F)F)cn1 (stereo not drawn) [Compound P18, 3-bromo-N-[1-[3-[5-(2,2,2-trifluoroethoxy)-2-pyridyl]pyrazin-2-yl]ethyl]-5-(trifluoromethyl)benzamide]
≥ 80%: mortality at 500 ppm [1] | control at 200 ppm [2] | percent control (mortality, anti-feeding or growth inhibition) at 200 ppm [4] | percent control (mortality or growth inhibition) at 200 ppm [3]

CC(NC(=O)c1cc(OC(F)F)cc(C(F)(F)F)c1)c1nccnc1-c1ccc(OC(F)F)cn1 (stereo not drawn) [Compound P4, 3-(difluoromethoxy)-N-[1-[3-[5-(difluoromethoxy)-2-pyridyl]pyrazin-2-yl]ethyl]-5-(trifluoromethyl)benzamide]
≥ 80%: control at 200 ppm [2] | percent control (mortality, anti-feeding or growth inhibition) at 200 ppm [4] | percent control (mortality or growth inhibition) at 200 ppm [5] | percent control (mortality or growth inhibition) at 200 ppm [3]

CC(NC(=O)c1cc(Cl)cc(C(F)(F)F)c1)c1nccnc1-c1ccc(OC(F)F)cn1 (stereo not drawn) [Compound P8, 3-chloro-N-[1-[3-[5-(difluoromethoxy)-2-pyridyl]pyrazin-2-yl]ethyl]-5-(trifluoromethyl)benzamide]
≥ 80%: control at 200 ppm [2] | percent control (mortality, anti-feeding or growth inhibition) at 200 ppm [4] | percent control (mortality or growth inhibition) at 200 ppm [5] | percent control (mortality or growth inhibition) at 200 ppm [3]

CC(NC(=O)c1cc(Cl)cc(C(F)(F)F)c1)c1nccnc1-c1ncc(OCC(F)F)cn1 (stereo not drawn) [Compound P36, 3-chloro-N-[1-[3-[5-(2,2-difluoroethoxy)pyrimidin-2-yl]pyrazin-2-yl]ethyl]-5-(trifluoromethyl)benzamide]
≥ 80%: percent control (mortality, anti-feeding or growth inhibition) at 200 ppm [4] | percent control (mortality or growth inhibition) at 200 ppm [3]

CC(NC(=O)c1cc(OC(F)F)cc(C(F)(F)F)c1)c1nccnc1-c1ccc(OCC(F)(F)F)cn1 (stereo not drawn) [Compound P12, 3-(difluoromethoxy)-N-[1-[3-[5-(2,2,2-trifluoroethoxy)-2-pyridyl]pyrazin-2-yl]ethyl]-5-(trifluoromethyl)benzamide]
≥ 80%: mortality at 500 ppm [1] | control at 200 ppm [2] | percent control (mortality, anti-feeding or growth inhibition) at 200 ppm [4] | percent control (mortality or growth inhibition) at 200 ppm [3]

CC(NC(=O)c1cc(C(F)(F)F)cc(C(F)(F)F)c1)c1nccnc1-c1ccc(C#N)cn1 (stereo not drawn) [Compound P31, N-[1-[3-(5-cyano-2-pyridyl)pyrazin-2-yl]ethyl]-3,5-bis(trifluoromethyl)benzamide]
≥ 80%: mortality at 500 ppm [1] | control at 200 ppm [2] | percent control (mortality, anti-feeding or growth inhibition) at 200 ppm [4] | percent control (mortality or growth inhibition) at 200 ppm [3]

CC(NC(=O)c1cc(Cl)cc(C(F)(F)F)c1)c1nccnc1-c1ccc(OCC(F)F)cn1 (stereo not drawn) [Compound P20, 3-chloro-N-[1-[3-[5-(2,2-difluoroethoxy)-2-pyridyl]pyrazin-2-yl]ethyl]-5-(trifluoromethyl)benzamide]
≥ 80%: mortality at 500 ppm [1] | control at 200 ppm [2] | percent control (mortality, anti-feeding or growth inhibition) at 200 ppm [4] | percent control (mortality or growth inhibition) at 200 ppm [3]

CC(NC(=O)c1cc(Br)cc(C(F)(F)F)c1)c1nccnc1-c1ccc(OC(F)F)cn1 (stereo not drawn) [Compound P11, 3-bromo-N-[1-[3-[5-(difluoromethoxy)-2-pyridyl]pyrazin-2-yl]ethyl]-5-(trifluoromethyl)benzamide]
≥ 80%: control at 200 ppm [2] | percent control (mortality, anti-feeding or growth inhibition) at 200 ppm [4] | percent control (mortality or growth inhibition) at 200 ppm [5] | percent control (mortality or growth inhibition) at 200 ppm [3]

CC(NC(=O)c1cc(OCC(F)F)cc(C(F)(F)F)c1)c1nccnc1-c1ccc(OC(F)F)cn1 (stereo not drawn) [Compound P2, 3-(2,2-difluoroethoxy)-N-[1-[3-[5-(difluoromethoxy)-2-pyridyl]pyrazin-2-yl]ethyl]-5-(trifluoromethyl)benzamide]
≥ 80%: control at 200 ppm [2] | percent control (mortality, anti-feeding or growth inhibition) at 200 ppm [4] | percent control (mortality or growth inhibition) at 200 ppm [3]

CC(NC(=O)c1cc(OCC(F)(F)F)cc(C(F)(F)F)c1)c1nccnc1-c1ccc(OC(F)F)cn1 (stereo not drawn) [Compound P6, N-[1-[3-[5-(difluoromethoxy)-2-pyridyl]pyrazin-2-yl]ethyl]-3-(2,2,2-trifluoroethoxy)-5-(trifluoromethyl)benzamide]
≥ 80%: control at 200 ppm [2] | percent control (mortality, anti-feeding or growth inhibition) at 200 ppm [4] | percent control (mortality or growth inhibition) at 200 ppm [5] | percent control (mortality or growth inhibition) at 200 ppm [3]

CC(NC(=O)c1cc(Br)cc(C(F)(F)F)c1)c1nccnc1-c1ccc(C#N)cn1 (stereo not drawn) [Compound P10, 3-bromo-N-[1-[3-(5-cyano-2-pyridyl)pyrazin-2-yl]ethyl]-5-(trifluoromethyl)benzamide]
≥ 80%: control at 200 ppm [2] | percent control (mortality, anti-feeding or growth inhibition) at 200 ppm [4] | percent control (mortality or growth inhibition) at 200 ppm [5] | percent control (mortality or growth inhibition) at 200 ppm [3]

CC(NC(=O)c1cc(OCC(F)(F)F)cc(C(F)(F)F)c1)c1nccnc1-c1ncc(OCC(F)F)cn1 (stereo not drawn) [Compound P38, N-[1-[3-[5-(2,2-difluoroethoxy)pyrimidin-2-yl]pyrazin-2-yl]ethyl]-3-(2,2,2-trifluoroethoxy)-5-(trifluoromethyl)benzamide]
≥ 80%: control at 200 ppm [2] | percent control (mortality, anti-feeding or growth inhibition) at 200 ppm [4] | percent control (mortality or growth inhibition) at 200 ppm [3]

CC(NC(=O)c1cc(Br)cc(C(F)(F)F)c1)c1nccnc1-c1ncc(OCC(F)(F)F)cn1 (stereo not drawn) [Compound P9, 3-bromo-N-[1-[3-[5-(2,2,2-trifluoroethoxy)pyrimidin-2-yl]pyrazin-2-yl]ethyl]-5-(trifluoromethyl)benzamide]
≥ 80%: control at 200 ppm [2] | percent control (mortality, anti-feeding or growth inhibition) at 200 ppm [4] | percent control (mortality or growth inhibition) at 200 ppm [5] | percent control (mortality or growth inhibition) at 200 ppm [3]
